Laboratory results reported in a melting point compilation (Tetko et al.; mined from patent text by program, amines drawn as free bases though some values may be those of a salt).

Row | melting point | SMILES
1 | 169 to 171 °C | O=C(O)c1cc2cc(Cl)ccc2nc1N[C@@H](Cc1ccc(OCc2ccccc2)cc1)C(=O)O
2 | 142 to 144 °C | O=C1NC(=O)C(Cc2cc(=O)n(Cc3ccc(Cl)cc3)c3ccccc23)S1 (configuration not stated)
3 | 170 °C | O=C(CCl)NC(=O)Nc1cc(C(F)(F)F)cc(C(F)(F)F)c1
4 | 270 to 280 °C | O=C(CNS(=O)(=O)c1ccc2[nH]c(=O)c(=O)[nH]c2c1)OCc1ccccc1
5 | 164 °C | C[C@@H]1CCCN1CCc1ccc2cc(-c3ccc(C#N)cc3)ccc2n1
6 | 219 to 220 °C | NS(=O)(=O)c1cc(C(=O)O)cc(NCc2ccco2)c1Oc1ccccc1
7 | 154 to 155 °C | CCCCC(=O)N(Cc1ccc(-c2ccccc2-c2nc(=O)o[nH]2)cc1)c1sccc1C(=O)OC
8 | 87 °C | Cc1cc(-c2cc(C(F)(F)F)n3nccc3n2)ccc1C(F)(F)F
9 | 208 to 210 °C | Cc1cc(-n2cnn(Cc3ccc(S(C)(=O)=O)cc3)c2=O)sc1C(=O)NCc1cccnc1
10 | 247 to 250 °C | CN(Cc1ccc(NC(=O)C2=Cc3cc(-c4ccc(Cl)cc4)ccc3S(=O)(=O)CC2)cc1)C1CCOCC1
11 | 136 to 138 °C | Cc1nn(-c2cncc(F)c2)cc1N
12 | 142 to 143 °C | C=Cn1nnn(-c2cc(OC)c(Cl)cc2Cl)c1=O
13 | 98 to 99 °C | CCCCCN1N=C(c2ccc(OCC)c(OCC)c2)[C@@H]2CCCC[C@@H]2C1=O (relative stereo)
14 | 285 to 288 °C | Cc1ccc(N2C(=O)C(O)=C(C(=O)c3ccc(C(C)C)cc3)C2c2ccc(OC3CC3)cc2)nn1 (configuration not stated)
15 | 205 to 206 °C | NC(=NO)c1nn(-c2c(Cl)cc(C(F)(F)F)cc2Cl)c(N)c1S(=O)(=O)C(F)(F)F
16 | 300 °C | Cc1nc(NC(=O)c2cnn3c(C(F)(F)F)cc(-c4ccc(C(F)(F)F)cc4)nc23)sc1S(=O)(=O)N1CCC(O)C1 (racemic)
17 | 130 °C | CC(C)(Oc1ccc(Cc2ccccc2)cc1)C(=O)O
18 | 215 °C | O=c1c2ccc(Cl)cc2[nH]c2c(O)nn(Cc3ccccc3F)c(=O)c12
19 | 77 to 80 °C | CCOC(=O)c1c(OCC)nsc1NC(=O)N(CC)CC
20 | 93 to 99 °C | CCn1c(Nc2ccc(C)cc2)nnc1[C@@H](C)NS(=O)(=O)c1ccc(Cl)c(Cl)c1

Row | melting point | SMILES
21 | 186 °C | CCC(C(=O)c1ccc(Cl)cc1)n1ncn(-c2ccc(N3CCN(c4ccc(O)cc4)CC3)cn2)c1=O (configuration not stated)
22 | 169 to 171 °C | CCN(CC)c1ccc2cc(C=CC(=O)c3c(N(CC)CC)c4ccccc4oc3=O)oc2c1
23 | 193 to 195 °C | CCNc1ncc2ccc(=O)n(-c3ccccc3)c2n1
24 | 111 to 112 °C | CCC(=NO)C1=CCCN(Cc2ccccc2)C1
25 | 122 °C | CSC(C#N)c1cccc(C(=O)c2ccc(Cl)cc2)c1N (configuration not stated)
26 | 227 to 228 °C | COC(=O)c1nc2cc(Cl)c(Cl)c(Cl)c2c(O)c1C(=O)OC
27 | 137 °C | Cc1cn2cccc(OCc3ccc(F)cc3)c2n1
28 | 222 to 223 °C | CNC(=O)C(CNC(=O)c1ccccc1)NC(=O)OC(C)(C)C (configuration not stated)
29 | 228 to 229 °C | CS(=O)(=O)N1CCC(NC(=O)NC23CC4CC(CC(C4)C2)C3)CC1
30 | 122 to 124 °C | O=C(Nc1ccc(Oc2ccnc(NCC3OCCO3)n2)c2ccccc12)c1cc(F)cc(N2CCOCC2)c1
31 | 144 to 145 °C | CC(=O)NCCOc1cc(-c2ccccc2)on1
32 | 122 to 123 °C | COC(=O)NC=Cc1ccc(OCC2CO2)c(OC)c1 (configuration not stated)
33 | 99 to 100 °C | CCOC(=O)c1c[nH]nc1NCc1ccccc1
34 | 262 to 264 °C | O=c1c(-c2ccc(O)cc2)coc2ncccc12
35 | 138 to 144 °C | CCS(=O)c1ccc(Oc2ccc(Cl)c(Cl)c2)nc1C#N (configuration not stated)
36 | 241 to 242 °C | CN(c1cccc2cc(C(=O)O)[nH]c12)S(=O)(=O)c1nccn1C
37 | > 300 °C | O=c1[nH]c2sc(Cl)c(Cl)c2[nH]c1=O
38 | 64.5 to 65.5 °C | CCCCCCCCCCOc1csc(-c2ccc(N)cc2)c1OCCCCCCCCCC
39 | 179 to 181 °C | O=[N+]([O-])c1ccc(Oc2cc3ccccc3cc2Oc2ccc([N+](=O)[O-])c(O)c2)cc1O
40 | 172 to 173 °C | CSc1ccc(-n2cnc(-c3ccc(F)cc3)c2-c2ccncc2)cc1

The next lines start with the compound.

Row | SMILES | melting point
41 | CN1CCN(CCCNc2ncc3cc(-c4c(Cl)cccc4Cl)c(NC(=O)Nc4ccc(Br)cc4)nc3n2)CC1 | 171 to 175 °C
42 | O=c1c2c(Cc3ccc(C(F)(F)F)cc3)n[nH]c2c2cccnc2n1-c1cccc(OC(F)(F)F)c1 | 227 to 231 °C
43 | Cc1nc(N2CCCN(CC3CC3)C2=O)sc1C(=O)NCc1cccnc1 | 142 to 145 °C
44 | CC(C)(C)C(=O)OCn1c(-c2cnn(-c3c(Cl)cc(C(F)(F)F)cc3Cl)n2)nc(C#N)c1C#N | 103 to 104 °C
45 | O=C(O)c1c(Cc2cc3c(cc2Cl)OCO3)c(-c2ccsc2)nn1CC1CCCCC1 | 250 °C
46 | CC(=O)Nc1cccc(C)c1C(=O)O | 189 to 190 °C
47 | COc1ccc(S(=O)(=O)CCNC(=O)N2CCCC2=O)cc1 | 124 to 125 °C
48 | COc1ccccc1[C@H](C)C(=O)O | 102 °C
49 | O=C(NC(=O)c1ccc2ncccc2c1)NC1CCN(Cc2ccc3ccccc3c2)CC1 | 211 to 213 °C
50 | O=C(NCc1ccc(F)cc1)c1nc2n(c(=O)c1OCc1ccccc1)CCN2Cc1ccccc1 | 125 °C
51 | CCOC(=O)C1=C(/C=C/N(C)C)C(CC)(C(=O)N(CC)CC)OC1=O (configuration not stated) | 105 °C
52 | Cc1oc(-c2ccccc2)nc1COc1nn(Cc2ccc(Oc3ccccc3)cc2)cc1/C=C/C(=O)O | 210 to 211 °C
53 | CC(C)(C)c1ccc(CBr)cc1NC(=O)CC1c2ccccc2Oc2ccccc21 | 229 to 231 °C
54 | CCCCC1(N(C)C)CC=C(c2c[nH]c3ncccc23)CC1 (configuration not stated) | 142 to 145 °C
55 | NS(=O)(=O)c1cccnc1OC1CCCC1 | 134 to 135 °C
56 | CC=C(Cc1ccccc1)NNC(=O)OC(C)(C)C | 76 to 79 °C
57 | CCN(CC)c1ccc(-c2cc(-c3ccc(C(=O)O)cc3)ccc2CCCNC(C)(C)C)cc1C(C)(C)C | 273 °C
58 | COc1ccc(-n2cnc3ccc(-c4nnc(NCc5cccc(F)c5)o4)cc32)cc1 | 164 to 166 °C
59 | Cc1ccc([S@@](C)=O)cc1 | 75 to 76 °C

Row | SMILES | melting point
60 | NCC1CC1CCC(=O)Nc1ccc(NC(=O)CCC2CC2CN)c2c1C(=O)c1ccccc1C2=O (configuration not stated) | 208 to 210 °C
61 | COc1ccc(C2=C(c3ccccc3)CCCc3cc(OCc4ccccc4)ccc32)cc1 | 163 to 164 °C
62 | Oc1ccc(C2(c3cccc(O)c3)c3ccccc3-c3ccccc32)cc1 | 221 °C
63 | CCCc1nn(-c2ccc(C(F)(F)F)cn2)cc1COc1ccc(CCC(=O)O)c(OC)c1 | 153 to 154 °C
64 | COc1ccc(CCCS(=O)(=O)c2ccc(S(N)(=O)=O)s2)cc1 | 136 to 138 °C
65 | CC(=O)c1nnn(C[C@@H]2C[C@@H](S)CN2S(=O)(=O)c2ccc3ccccc3c2)c1C | 145 °C
66 | Nc1ncc(-c2ccccc2)nc1Sc1ccccc1 | 109 to 112 °C
67 | COc1ccc(C2=NNC(=O)CC2)cc1N | 218 to 220 °C
68 | COc1cc(-n2cnc(CO)c2)cc(C(F)(F)F)c1 | 133 to 134 °C
69 | CC(Oc1ccc(-c2ccc(Cl)cc2Cl)cc1)C(O)CCc1cccnc1 (configuration not stated) | 98 to 100 °C
70 | CCOC(=O)C(C)(Cc1ccc([N+](=O)[O-])cc1)C(=O)OCC | 59 to 61 °C
71 | Cc1cc2nc(Cl)nc(Cl)c2s1 | 152 to 153 °C
72 | CCCCCCCCCCCCCCCCNc1ccc(C2=NCCO2)cc1 | 123 to 125 °C
73 | CC(C)(C)c1cc(N)n(-c2c(Cl)cc(C(F)(F)F)cc2Cl)n1 | 110 to 120 °C
74 | CCCCOc1ccc(S(=O)(=O)C2(C(=O)NO)CCN(Cc3cccc(OC)c3)CC2)cc1 | 137 °C
75 | CCN(CCNC(=O)c1ccc2ccccc2c1)C1CCc2ncsc2C1 (configuration not stated) | 110 °C
76 | Cc1cc(OCc2ccc(-c3ccc(F)c(C(F)(F)F)c3)nc2C)ccc1OC(C)(C)C(=O)O | 141 to 143 °C
77 | N#Cc1cc(Cl)nc(NN)c1 | 208 to 210 °C
78 | COc1ccccc1NC(=O)Nc1nc(N(CCC(=O)O)Cc2ccc(Cl)c(Cl)c2)nc(=O)[nH]1 | 188 °C

Row | SMILES | melting point
79 | Cc1c(C)c2c(c(C)c1NCc1ccccc1)OC(C)(C)C2=O | 79 to 83 °C
80 | O=C(NC(O)C(F)(F)F)c1ccc(Cl)cc1 (configuration not stated) | 140 °C
81 | Cn1cc(-n2c(-c3cccc(F)c3)nc3c(Cl)ncnc32)ccc1=O | 219 °C
82 | O=C(NCCCN1CCN(c2ccc(F)cc2OCC(F)(F)F)CC1)c1conc1-c1ccc(F)cc1 | 122 to 123 °C
83 | O=C(Nc1ccc(Cl)c2c(Cl)ccnc12)c1c(Cl)cccc1Cl | 243 to 247 °C
84 | CC(C)C(=O)N1CCC(c2nc3cc(-c4ccc(C(N)=O)c(F)c4)ccc3o2)CC1 | 193 to 196 °C
85 | O=C([C@H]1CC[C@H](Nc2ncc3ncnc(Nc4ccc(F)c(Cl)c4)c3n2)CC1)N1CCCC1 | 206 to 209 °C
86 | O=S(=O)(Cc1cccs1)c1ncc(Br)cn1 | 124 to 126 °C
87 | O=c1c(Cl)c(S(=O)(=O)C2CCCCC2)cnn1-c1ccccc1 | 195 to 196 °C
88 | COC(=O)C(=O)c1ccc(S(=O)CCOc2ccc3ccccc3c2)cc1 (configuration not stated) | 129 to 130 °C
89 | CC(=O)c1ccc(OC(CCCCC(=O)O)c2ccccc2)cc1O (configuration not stated) | 91 to 93 °C
90 | Cc1cc(C)c(S(=O)(=O)n2c(CCC(=O)O)cc3cc(Cl)ccc32)c(C)c1 | 132 to 134 °C
91 | CSc1ccc(-c2cncn2-c2ccc(S(C)(=O)=O)cc2)cc1 | 153 to 155 °C
92 | CC(=O)N1CC(CCN2CC=C(c3c[nH]c4cc(Cl)ccc34)CC2)c2cc(F)ccc21 (configuration not stated) | 183 to 185 °C
93 | FC(F)c1cn(-c2c(Cl)cc(C(F)(F)F)cc2Cl)nc1C(F)(F)F | 88 to 90 °C
94 | CCOC(=O)c1cnc2cc(OC)c(OC)cc2c1Cl | 147 to 150 °C
95 | CS(=O)c1cccc2c1C(=O)N1CCCC1c1c(C(=O)OC(C)(C)C)ncn1-2 (configuration not stated) | 224 to 225 °C
96 | CSc1c(S(=O)(=O)NC(C)(C)C)ccn1C | 116 to 119 °C
97 | COC(=O)c1cc(N(C)C)c2cc(Cc3ccc(F)cc3)cnc2c1O | 62 to 63 °C
